Data taken from paper PMC6154719 (Molecules : A Journal of Synthetic Chemistry and Natural …, 2017).

Key:
Type in all cases: in vitro ADME
[1] = test system: GST; assay: GST activity in rat liver subcellular fraction; conditions: 100 µM sesquiterpene, control 350 ± 8
Method: (§1) Enzyme activities were assayed in human and rat liver cytosolic and microsomal fractions. The enzyme assays (each performed in 4–8 replicates) were repeated three times (HPLC measurement of CYP activities was repeated only twice, Table 3). Inhibition studies were carried out by incubation of specific substrates in the presence of sesquiterpenes (in the range 0–100 µM).
(§2) The assays of all other enzymes were based on spectrophotometric detection of product formed or detection of decreasing substrate/cofactor levels using microplate reader Tecan Infinite M200 in cytosolic or microsomal fractions. Enzyme activities were determined using slight modifications of previously-published methods: carbonyl reducing enzymes (AKR1A, AKR1C, CBR1 [45], NQO1 [46]), UDP-glucuronosyltransferase (UGT [47]), sulfotransferase (SULT [48]), and cytosolic glutathione-S-transferase (GST [49]).
(§3) Sesquiterpenes CNER, TNER and FAR, non-volatile liquids, were pipetted, and proper concentration was calculated according to density. All compounds were dissolved in DMSO. The final solvent concentration in the inhibition assays was 1%, which had no effect on the enzyme activity (data not shown). Non-enzymatic interference of sesquiterpenes with some compounds in the reaction mixtures (e.g., fluorescence enhancing or quenching) was considered and excluded. All experiments were performed in three replicates, if not stated otherwise.
(§4) CNER, TNER and FAR at a fixed concentration of 100 µM were screened for inhibition of cytosolic AKR1A1, AKR1C, CBR1, NQO1, SULT, and GST, and microsomal CYPs and UGT. The degree of inhibition caused by sesquiterpenes was compared with non-inhibited control reactions, which contained solvent without sesquiterpenes.

[2] = biological target: T1, AKR1A (Rattus norvegicus, UniProt P51635); assay: AKR1A activity in rat liver subcellular fraction; conditions: 100 µM sesquiterpene, control 3.60 ± 0.13
T1 construct: Frozen liver (both rat and human) was thawed; from tissue; host or cells: rat liver cytosolic fraction
T1 sequence (P51635 1-325): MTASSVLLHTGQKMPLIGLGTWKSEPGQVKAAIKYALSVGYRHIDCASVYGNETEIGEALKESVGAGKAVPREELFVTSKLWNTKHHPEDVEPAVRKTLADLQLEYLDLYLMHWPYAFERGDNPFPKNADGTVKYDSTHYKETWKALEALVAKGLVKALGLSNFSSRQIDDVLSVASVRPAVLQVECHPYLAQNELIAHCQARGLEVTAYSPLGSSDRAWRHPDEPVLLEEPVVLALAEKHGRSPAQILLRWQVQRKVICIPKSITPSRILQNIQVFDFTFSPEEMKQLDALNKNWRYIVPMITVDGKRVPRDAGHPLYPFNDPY
Method: as §1, §2, §3, §4

[3] = test system: UGT; assay: UGT activity in human liver subcellular fraction; conditions: 100 µM sesquiterpene, control 7.12 ± 0.35
Method: as §1, §2, §3, §4

[4] = biological target: T2, CYP1A2 (Homo sapiens, UniProt P05177); assay: CYP1A2 (EROD activity, 7-ethoxyresorufin O-deethylation) in human liver microsomes; conditions: for Specific Activity, CYP1A2 (EROD activity): in the presence of 100 µM sesquiterpene, control 1.88 ± 0.19; for inhibition at 5 µM: liver microsomes, probe 7-ethoxyresorufin, human, 5 µM inhibitor
T2 construct: Frozen liver (both rat and human) was thawed; from tissue; host or cells: human liver microsomal fraction
T2 sequence (P05177 1-516): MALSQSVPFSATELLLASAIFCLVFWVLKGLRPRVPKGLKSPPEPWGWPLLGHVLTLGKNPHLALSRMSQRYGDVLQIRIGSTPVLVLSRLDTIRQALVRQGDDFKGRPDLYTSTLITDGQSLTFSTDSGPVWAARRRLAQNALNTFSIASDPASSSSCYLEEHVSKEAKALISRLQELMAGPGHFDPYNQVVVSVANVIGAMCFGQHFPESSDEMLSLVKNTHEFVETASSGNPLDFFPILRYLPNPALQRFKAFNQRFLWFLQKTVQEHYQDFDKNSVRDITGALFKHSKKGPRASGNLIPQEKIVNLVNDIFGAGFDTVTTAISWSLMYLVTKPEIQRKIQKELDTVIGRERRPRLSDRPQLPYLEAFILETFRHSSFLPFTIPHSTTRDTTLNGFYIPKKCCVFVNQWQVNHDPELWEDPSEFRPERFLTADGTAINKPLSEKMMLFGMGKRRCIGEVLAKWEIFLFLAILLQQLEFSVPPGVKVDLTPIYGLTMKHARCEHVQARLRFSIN
Method: as §1
Enzyme activities of individual CYP forms were measured according to established protocols. The following microsomal CYP activities were tested: CYP2A6, coumarin 7-hydroxylation; CYP2B6, 7-ethoxy-4-(trifluoromethyl)coumarin 7-deethylation, CYP2C9, diclofenac 4′-hydroxylation, CYP2C19 assay, S-mephenytoin 4′-hydroxylation, CYP2D6 on bufuralol 1′-hydroxylation, CYP2E1, chlorzoxazone 6-hydroxylation and CYP3A4, testosterone 6β-hydroxylation, and midazolam 1′-hydroxylation. Activities were measured using the Prominence HPLC system (Shimadzu, Kyoto, Japan), equipped with a LiChroCART 250-4 LiChrospher 100 RP-18 column or Chromolith®HighResolution RP-18 end-capped column (Merck, Darmstadt, Germany) and UV or fluorescence detection, according to the cited literature. Further incubation details are described either in the corresponding references, as well as in the papers from this laboratory e.g., [42, 43, 44]. CYP1A2, 7-ethoxyresorufin O-deethylation, and CYP3A4/2B6 (human), CYP2B1 (rat), benzyloxyresorufin O-debenzylation were measured using the microplate reader Tecan Infinite M200 (Tecan Group; Mannedorf, Switzerland).
Sesquiterpenes CNER, TNER and FAR, non-volatile liquids, were pipetted, and proper concentration was calculated according to density. All compounds were dissolved in DMSO. […] All experiments were performed in three replicates, if not stated otherwise.
as §4
The concentration of sesquiterpenes required for 50% inhibition of enzyme activity, the IC50 value, was determined. […] The IC50 values for each sesquiterpene were determined by plotting sigmoidal dose response curves of specific enzyme activity vs. logarithm of sesquiterpene concentration using GraphPad Prism version 6.07 for Windows (GraphPad Software Inc., La Jolla, CA, USA).
The kinetic inactivation study of the CYP1A2 (EROD activity) and CYP2B/3A (BROD activity), both in rat and human, with TNER, was performed to find out the mechanism of enzyme inhibition by this sesquiterpene. Mechanism of EROD and BROD inhibition was tested at the final ethoxyresorufin or benzyloxyresorufin concentrations 0.5–5.0 µM. The concentration of TNER was 5.0 µM.
Experimental data were fitted to the Michaelis-Menten equation, basic kinetic parameters were determined using the program GraphPad Prism version 6.07 for Windows. The type of inhibition was estimated using a Lineweaver-Burk (double-reciprocal) plot.

[5] = test system: GST; assay: GST activity in human liver subcellular fraction; conditions: 100 µM sesquiterpene, control 223 ± 19
Method: as §1, §2, §3, §4

With C=CC(C)(O)CC/C=C(/C)CCC=C(C)C (stereo not drawn) [CNER, cis-nerolidol] the “Specific activity, GST” value [1] was 334 ± 22 nmol/mg/min, the “Specific activity, AKR1A” value [2] was 3.86 ± 0.47 nmol/mg/min and the “Specific activity, UGT” value [3] was 7.09 ± 0.34 nmol/mg/min. For the same molecule, the IC50 ([4]; human liver microsomes) was 2490 nM, the “Specific Activity, CYP1A2 (EROD activity)” value (“Specific Activity, CYP1A2” for short) ([4]; human liver microsomes) was 0.163 ± 0.005 pmol/mg/min and the inhibition at 5 µM [4] was 50%. For the same molecule, the “Specific activity, GST” value [5] was 209 ± 10 nmol/mg/min.
CC(C)=CCC/C(C)=C/CC/C(C)=C/CO [FAR, farnesol] was tested, and the “Specific activity, GST” value [1] was 345 ± 20 nmol/mg/min, the “Specific activity, AKR1A” value [2] was 3.48 ± 0.32 nmol/mg/min and the “Specific activity, UGT” value [3] was 7.49 ± 1.08 nmol/mg/min. For the same molecule, the IC50 ([4]; human liver microsomes) was 1830 nM, the “Specific Activity, CYP1A2” value ([4]; human liver microsomes) was 0.083 ± 0.005 pmol/mg/min and the inhibition at 5 µM [4] was 77%. The “Specific activity, GST” value [5] was 181 ± 13 nmol/mg/min.
With C=CC(C)(O)CC/C=C(\C)CCC=C(C)C (stereo not drawn) [TNER, trans-nerolidol] the “Specific activity, GST” value [1] was 354 ± 37 nmol/mg/min, the “Specific activity, AKR1A” value [2] was 3.71 ± 0.56 nmol/mg/min and the “Specific activity, UGT” value [3] was 7.08 ± 0.39 nmol/mg/min. The IC50 ([4]; human liver microsomes) was 8690 nM, the Ki ([4]; human liver microsomes, EROD activity) was 920 ± 520 nM and the “Specific Activity, CYP1A2” value ([4]; human liver microsomes) was 0.287 ± 0.013 pmol/mg/min. For the same molecule, the “type of inhibition, CYP1A2 (EROD)” value ([4]; human microsomes, 5 µM TNER, ethoxyresorufin 0.5–5.0 µM) was “competitively”, the inhibition at 5 µM [4] was 38% and the “Specific activity, GST” value [5] was 235 ± 13 nmol/mg/min.
